# Reference: patent US20240336661A1, “PEPTIDES DERIVED FROM RUMINOCOCCUS TORQUES” (University of Copenhagen, priority 2021, published 2024)
# Experiments:
# [1] = system: human visceral white pre-adipocytes; test: Thermogenesis/browning gene expression in human visceral white pre-adipocytes (q-PCR); assay type: cell-based; settings: 15 nM, 14 days of differentiation
# Description: (§1) FIG. 9. Exposure of recombinant RUCILP2 to human visceral white pre-adipocytes or murine inguinal white adipocytes causes up-regulation of the expression of genes involved in thermogenesis/browning. Upper panel: mRNA expression level of adipocyte differentiation marker genes including Ucp1, Pparγ1, Dio2, and Cox2 and brown adipocyte-selective genes including Cpt1b and Ebf2 on human white preadipocytes (HWP). Human white preadipocytes were cultured until 80% confluent and switched into differentiation media (with 0.3 ml/ml fetal calf serum, 8 ug/ml d-biotin, 0.5 ug/ml insulin, 400 ng/ml dexamethasone). The differentiation process to mature adipocytes was completed after 12-14 days. The treatment of RUCILP2 started from the third day of differentiation. Cells were harvested after 14 days of differentiation and the gene expressions were quantified by q-PCR. […] Statistical significance was determined by unpaired two-tailed Student's t test. *, p<0.05 vs 0 nM RUCILP2.
# (§2) FIG. 28. […] Cells were harvested after 14 days of differentiation and the indicated genes were quantified by q-PCR. […] Cells were harvested after 6 days of differentiation and thermogenesis gene were quantified by q-PCR. […] Cells were harvested after 4 days of differentiation and expression of myogenesis genes were quantified by q-PCR. […] Statistical significance was determined by unpaired two-tailed Student's t test, *, p<0.05 […]
# [2] = system: murine inguinal white adipocytes; test: Thermogenesis gene expression in murine inguinal adipocytes (q-PCR); assay type: cell-based, mouse; settings: mouse inguinal preadipocytes, 15 nM every other day, 6 days
# Description: as §1, §2
# murine C2C12 myoblasts = test: Myotube formation and myogenesis gene expression in C2C12 myoblasts; assay type: cell-based, mouse
# Description: FIG. 12. […] The C2C12 myotubes were treated with indicated doses of RUCILP2 overnight and myotube images were collected at magnification, ×10.
# FIG. 28. […] White preadipocytes from human visceral fat (C-12732, PromoCell) were cultured until 80% confluent and switched into differentiation media (with 0.3 ml/ml of fetal calf serum (FCS), 8 ug/ml of d-biotin, 0.5ug/ml of insulin, 400 ng/ml of dexamethasone) in the presence of 15 nM of 21-AABP2. The differentiation process to mature adipocytes was completed after 14 days. Cells were harvested after 14 days of differentiation and the indicated genes were quantified by q-PCR. Inguinal fat tissues from 6-week-old wild-type C57BL/6J female mice were dissected and washed with PBS, minced and digested for 1 hour at 37° C. in PBS containing 10 mM CaCl2, 2.4 U/ml dispase II (Roche) and 10 mg/ml collagenase D (Roche). After adding warm DMEM/F12 (1:1) with 10% FCS, digested tissue was filtered through a […] cell strainer and centrifuged at 600×g for 10 minutes. Pellet was resuspended by 40 ml DMEM/F12 (1:1) with 10% FCS and filtered through a […] cell strainer followed by centrifugation at 600×g for 10 minutes. Pelleted inguinal stromal vascular cells were grown to confluence and split onto 12-well plates. The cells were induced to differentiate by treatment with […], 0.5 mM isobutyl methyl xanthine for 2 days. After that, cells were maintained in […] for 4 days with medium change every other day. The cells were treated with 15 nM of 21-AABP2 every other day during 6 days of differentiation. Cells were harvested after 6 days of differentiation and thermogenesis gene were quantified by q-PCR. C2C12 myoblasts (CRL-1772, ATCC) were cultured until 80% confluent and switched into differentiation media (with 2% horse serum). The treatment with 21-AABP2 started from the second day of differentiation. Cells were harvested after 4 days of differentiation and expression of myogenesis genes were quantified by q-PCR. Data are presented as mean+/−SEM of one representative experiment done in biological triplicates. Statistical significance was determined by unpaired two-tailed Student's t test, *, p<0.05
# FIG. 29. […] Representative images of myoblasts (CRL-1772, ATCC) at 24h of differentiation in the presence of phosphate buffered saline (PBS, blank) or 21-AABP2 (15 nM). Presented images were from one representative experiment done in biological triplicates.
# C2C12 cells were seeded on 12-well plates under DMEM/F-12 medium (Dulbecco's Modified Eagle Medium/Nutrient Mixture F-12, Fisher Scientific, #11524436), supplemented with 10% FBS (Fetal Bovine Serum, Fisher Scientific, #11550356) and 1% Penicillin-Streptomycin (Fisher Scientific, #11548876). Cell cultures were maintained in a humidified chamber with 5% CO2 at 37° C., and culture media were changed every 2-3 days.
# At approximately 80% confluence, 10% fetal bovine serum was replaced with 2% horse serum to induce C2C12 myoblast cells to differentiate into myotubes. Twenty-four hours later (day 1 of the differentiation), the cells were treated with recombinant RUCILP2 or commercial recombinant irisin (Sigma, #SRP8039-10UG and Phoenix pharmaceuticals, #067-29A) or saline. For integrin inhibitor treatment, cells were treated with 10 μM of CycloRGDyK (Selleckchem, #S7844) for 10 minutes and washed with PBS before treated with recombinant RUCILP2 or commercial recombinant irisin or saline. At day three, the cells were refreshed with the same media as day one. After treatments for six hours on day 3, C2C12 cells were harvested for qRT-PCR analysis.
# C2C12 myoblasts were cultured until 80% confluent and switched into differentiation media (with 2% horse serum). The treatment with 21-AABP2 started from the second day of differentiation. Representative images of the formed myotubes at 24h of differentiation in the presence of PBS (blank) or 21-AABP2 (15 nM) were captured. […]
# [3] = system: rat insulinoma INS-1 cells; test: Insulin release from INS-1 cells (ELISA); assay type: cell-based; settings: 15 nM, 12 hours
# Description: FIG. 30. Insulin release from the immortalized rat insulinoma INS-1 cells is increased following 21-AABP2 stimulation. INS-1 cells (832/13, ThermoFisher) were grown in RPM 1640 medium until a confluency of 70% was achieved and switched to RPM 1640 medium supplied with 15 nM of 21-AABP2 and incubated for 12 hours. The insulin concentration in the supernatant of cell culture medium was measured by MSD rat/mouse insulin ELISA kit. Data are presented as mean+/−SEM of one representative experiment done in biological triplicate. Statistical significance was determined by unpaired two-tailed Student's t test, *, p<0.05.
# INS-1 cells were grown in RPMI 1640 medium (11875093, ThermoFisher Scientific) until a confluency of 70% was achieved and switched to RPMI 1640 medium supplied with 15 nM of 21-AABP2 and incubated for 12 hours. The insulin concentration in supernatant of cell culture medium was measured by MSD rat/mouse insulin ELISA kit (Merck Millipore).
substance,measurement,setting,value
"21-AABP2: 21 amino acid trypsin cleaved fragment of RUCILP2, made recombinantly in E. coli (AETTYFVEVTAVDAAGNESVK; Ruminococcus torques)",expression of genes involved in thermogenesis/browning,[1],promotes expression
same,expression of key genes regulating thermogenesis,[2],induces expression
same,myotube development,"murine C2C12 myoblasts; C2C12, 15 nM, 24h of differentiation",increases myotube development
same,"expression of genes involved in myogenesis (Mymk, Caveolin-3)","murine C2C12 myoblasts; C2C12, harvested after 4 days of differentiation",stimulates expression
same,insulin release,[3],increased
